Assay type in all cases: biochemical
The target in one assay is PI4KB (Homo sapiens, UniProt Q9UBF8). Put plainly: PI4 kinase inhibition, ADP-Glo Kinase assay. The settings on record: 60 min, 10 μM ATP. The protocol: (§1) Inhibition of PI4 kinases was performed with the ADP-Glo™ Kinase assay which measures the ADP formed from a kinase reaction, where ADP is converted into ATP and then converted into light by Ultra-Glo™ Luciferase. Reactions were carried out for 60 min at 10 μM ATP. The luminescent signal produced in reaction is proportional to the kinase activity.
PI4KB, sequence (Q9UBF8 whole entry, species assumed): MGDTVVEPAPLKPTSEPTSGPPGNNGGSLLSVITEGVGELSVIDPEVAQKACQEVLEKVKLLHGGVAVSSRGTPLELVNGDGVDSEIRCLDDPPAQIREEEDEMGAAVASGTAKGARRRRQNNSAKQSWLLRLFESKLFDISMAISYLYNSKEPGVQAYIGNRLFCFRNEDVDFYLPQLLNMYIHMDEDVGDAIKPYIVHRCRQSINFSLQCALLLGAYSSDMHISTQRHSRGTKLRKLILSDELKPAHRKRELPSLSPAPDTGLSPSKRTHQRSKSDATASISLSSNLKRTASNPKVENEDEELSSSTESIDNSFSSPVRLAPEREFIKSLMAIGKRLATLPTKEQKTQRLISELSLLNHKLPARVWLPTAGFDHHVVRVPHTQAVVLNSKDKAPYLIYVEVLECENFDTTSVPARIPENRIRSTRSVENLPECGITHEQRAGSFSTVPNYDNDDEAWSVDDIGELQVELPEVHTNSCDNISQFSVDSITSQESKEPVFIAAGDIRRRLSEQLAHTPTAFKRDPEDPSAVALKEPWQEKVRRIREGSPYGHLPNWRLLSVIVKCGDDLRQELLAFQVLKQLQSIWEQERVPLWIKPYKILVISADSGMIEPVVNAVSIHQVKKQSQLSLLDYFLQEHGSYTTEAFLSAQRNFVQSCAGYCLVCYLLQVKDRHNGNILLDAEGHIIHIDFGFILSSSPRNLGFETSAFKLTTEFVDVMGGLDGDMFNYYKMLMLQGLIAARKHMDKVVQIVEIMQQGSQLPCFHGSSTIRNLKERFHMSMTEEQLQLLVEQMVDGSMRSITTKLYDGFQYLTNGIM
Background: ADP-Glo turns the ADP formed in a reaction into a luminescent signal.

The next assay addresses PI4K2A (Homo sapiens, UniProt Q9BTU6). As to the kind of experiment: PI4 kinase inhibition, ADP-Glo Kinase assay. The settings on record: 60 min, 10 μM ATP, not tested at concentration higher than 10 μM. The protocol: as §1
The next assay addresses PI4K2B (Homo sapiens, UniProt Q8TCG2). As to the kind of experiment: PI4 kinase inhibition, ADP-Glo Kinase assay. The settings on record: 60 min, 10 μM ATP, not tested at concentration higher than 10 μM. The procedure: as §1
In the next assay the target is PI4KA (Homo sapiens, UniProt P42356). As to the kind of experiment: PI4 kinase inhibition, ADP-Glo Kinase assay. Conditions: 60 min, 10 μM ATP. The protocol: as §1
PI4KA, sequence (P42356 whole entry, species assumed): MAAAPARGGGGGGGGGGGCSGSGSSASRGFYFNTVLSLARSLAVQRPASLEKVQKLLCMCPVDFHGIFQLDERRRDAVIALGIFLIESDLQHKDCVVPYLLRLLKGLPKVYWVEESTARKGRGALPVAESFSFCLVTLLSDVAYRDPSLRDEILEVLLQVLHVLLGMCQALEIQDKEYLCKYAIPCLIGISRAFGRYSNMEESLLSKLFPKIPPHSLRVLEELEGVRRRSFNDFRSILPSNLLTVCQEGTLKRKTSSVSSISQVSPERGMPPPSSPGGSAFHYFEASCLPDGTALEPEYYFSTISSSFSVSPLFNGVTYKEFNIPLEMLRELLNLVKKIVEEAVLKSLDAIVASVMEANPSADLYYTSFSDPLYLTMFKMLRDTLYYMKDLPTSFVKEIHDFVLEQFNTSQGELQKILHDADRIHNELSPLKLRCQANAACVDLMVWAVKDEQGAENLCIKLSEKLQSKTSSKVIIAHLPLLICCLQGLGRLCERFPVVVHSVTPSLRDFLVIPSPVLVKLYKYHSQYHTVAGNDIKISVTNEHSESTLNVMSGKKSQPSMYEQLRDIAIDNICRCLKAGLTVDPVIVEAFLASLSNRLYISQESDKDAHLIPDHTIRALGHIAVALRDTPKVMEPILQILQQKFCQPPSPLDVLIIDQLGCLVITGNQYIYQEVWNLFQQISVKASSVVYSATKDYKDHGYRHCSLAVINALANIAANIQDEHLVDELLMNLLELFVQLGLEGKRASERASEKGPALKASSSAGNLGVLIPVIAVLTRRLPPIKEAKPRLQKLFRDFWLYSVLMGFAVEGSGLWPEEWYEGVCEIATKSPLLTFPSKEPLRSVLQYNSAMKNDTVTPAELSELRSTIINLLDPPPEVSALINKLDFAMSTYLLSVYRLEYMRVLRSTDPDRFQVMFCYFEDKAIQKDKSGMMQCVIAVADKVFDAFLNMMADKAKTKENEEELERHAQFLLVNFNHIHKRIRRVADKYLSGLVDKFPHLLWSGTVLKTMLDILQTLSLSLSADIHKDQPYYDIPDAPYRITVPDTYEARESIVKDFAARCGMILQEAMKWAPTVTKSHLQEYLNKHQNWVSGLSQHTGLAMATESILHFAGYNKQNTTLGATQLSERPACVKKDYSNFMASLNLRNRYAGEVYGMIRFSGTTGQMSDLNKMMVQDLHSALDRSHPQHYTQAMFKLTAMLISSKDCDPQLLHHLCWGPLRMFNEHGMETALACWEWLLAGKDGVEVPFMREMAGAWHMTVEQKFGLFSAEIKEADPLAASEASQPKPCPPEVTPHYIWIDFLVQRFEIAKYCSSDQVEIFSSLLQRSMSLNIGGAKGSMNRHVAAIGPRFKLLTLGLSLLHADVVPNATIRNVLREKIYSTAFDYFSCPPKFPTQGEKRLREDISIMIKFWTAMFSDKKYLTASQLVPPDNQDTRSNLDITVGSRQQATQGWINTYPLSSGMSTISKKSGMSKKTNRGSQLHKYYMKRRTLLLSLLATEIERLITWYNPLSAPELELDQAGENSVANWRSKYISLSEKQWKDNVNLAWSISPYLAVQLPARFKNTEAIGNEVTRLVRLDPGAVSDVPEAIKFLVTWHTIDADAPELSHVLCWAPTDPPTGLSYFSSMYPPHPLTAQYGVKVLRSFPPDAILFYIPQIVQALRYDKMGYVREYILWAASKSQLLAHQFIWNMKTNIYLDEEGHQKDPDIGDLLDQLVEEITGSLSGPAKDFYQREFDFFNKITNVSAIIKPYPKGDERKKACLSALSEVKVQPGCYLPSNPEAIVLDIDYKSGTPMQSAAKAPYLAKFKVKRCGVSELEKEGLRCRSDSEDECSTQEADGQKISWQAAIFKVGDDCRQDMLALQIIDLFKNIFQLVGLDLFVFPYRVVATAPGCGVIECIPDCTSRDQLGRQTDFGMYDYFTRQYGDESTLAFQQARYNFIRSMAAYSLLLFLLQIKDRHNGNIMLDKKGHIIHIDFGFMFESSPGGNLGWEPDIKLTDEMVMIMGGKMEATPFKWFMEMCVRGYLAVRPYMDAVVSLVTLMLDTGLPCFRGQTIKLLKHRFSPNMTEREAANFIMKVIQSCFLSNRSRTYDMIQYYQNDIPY
For the next assay, the target named is PI3KB (p110b/p85a) (Homo sapiens, UniProt P42338). Put plainly: PI3 kinase inhibition, HTRF assay. The source says:
(§2) Inhibition of PI3 kinases was studied using the HTRF (homogeneous time-resolved fluorescence) assay which is a universal method for identifying and characterizing the phosphotransferase activity induced by any ATP/ADP dependent target. The formation of ADP was detected by a specific monoclonal antibody labeled with Eu^3+ cryptate; the amount of ADP formed directly correlates with the amount of phosphorylated substrate in kinase assays.

The next assay addresses PI3K (p120g) (Homo sapiens, UniProt P48736). Put plainly: PI3 kinase inhibition, HTRF assay. The settings on record: not tested at concentration higher than 1 μM.
Description: as §2
On the technique in general: Time-resolved FRET reads energy transfer from a long-lived donor to a nearby acceptor.

A further assay deals with PI3KA (p110a/p85a) (Homo sapiens, UniProt P42336). Put plainly: PI3 kinase inhibition, HTRF assay.
Description: as §2

Where only a bound is given, the exact number is not on record here.

The source of these data is patent publication US20260240762A1, “COMPOUND AND FORMULATION FOR SYSTEMIC THERAPY BY ORAL TRANSMUCOSAL ADMINISTRATION” (CUROVIR AB, priority 2023, published 2026).

PI3K (p120g), sequence (P48736 whole entry): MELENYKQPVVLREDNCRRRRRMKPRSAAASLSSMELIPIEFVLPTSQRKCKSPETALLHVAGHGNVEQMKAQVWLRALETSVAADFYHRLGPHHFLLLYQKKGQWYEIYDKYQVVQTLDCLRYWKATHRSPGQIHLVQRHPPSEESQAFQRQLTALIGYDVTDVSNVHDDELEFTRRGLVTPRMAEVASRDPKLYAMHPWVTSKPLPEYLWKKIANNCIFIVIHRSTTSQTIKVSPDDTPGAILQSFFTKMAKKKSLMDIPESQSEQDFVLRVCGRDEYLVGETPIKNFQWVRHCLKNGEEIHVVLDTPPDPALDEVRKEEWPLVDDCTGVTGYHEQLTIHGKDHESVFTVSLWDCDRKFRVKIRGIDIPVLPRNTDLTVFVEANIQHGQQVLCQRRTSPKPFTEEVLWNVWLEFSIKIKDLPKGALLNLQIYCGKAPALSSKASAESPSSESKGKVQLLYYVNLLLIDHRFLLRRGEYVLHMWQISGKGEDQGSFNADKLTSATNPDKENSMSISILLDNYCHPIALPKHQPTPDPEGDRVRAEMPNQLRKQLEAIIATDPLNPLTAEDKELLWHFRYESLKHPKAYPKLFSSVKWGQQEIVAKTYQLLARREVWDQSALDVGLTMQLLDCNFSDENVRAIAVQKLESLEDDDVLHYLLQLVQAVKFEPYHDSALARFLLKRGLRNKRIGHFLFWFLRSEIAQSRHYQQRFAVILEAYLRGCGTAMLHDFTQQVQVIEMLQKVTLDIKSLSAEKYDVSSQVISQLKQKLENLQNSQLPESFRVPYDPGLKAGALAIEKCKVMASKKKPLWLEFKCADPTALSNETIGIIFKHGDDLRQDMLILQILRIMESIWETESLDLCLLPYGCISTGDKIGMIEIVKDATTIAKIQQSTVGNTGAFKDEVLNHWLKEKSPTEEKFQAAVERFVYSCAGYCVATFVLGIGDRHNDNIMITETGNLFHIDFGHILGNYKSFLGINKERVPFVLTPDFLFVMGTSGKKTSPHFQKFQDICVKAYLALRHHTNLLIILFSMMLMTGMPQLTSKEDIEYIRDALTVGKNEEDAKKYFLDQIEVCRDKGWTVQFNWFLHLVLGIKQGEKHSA
PI4K2B, sequence (Q8TCG2 whole entry, species assumed): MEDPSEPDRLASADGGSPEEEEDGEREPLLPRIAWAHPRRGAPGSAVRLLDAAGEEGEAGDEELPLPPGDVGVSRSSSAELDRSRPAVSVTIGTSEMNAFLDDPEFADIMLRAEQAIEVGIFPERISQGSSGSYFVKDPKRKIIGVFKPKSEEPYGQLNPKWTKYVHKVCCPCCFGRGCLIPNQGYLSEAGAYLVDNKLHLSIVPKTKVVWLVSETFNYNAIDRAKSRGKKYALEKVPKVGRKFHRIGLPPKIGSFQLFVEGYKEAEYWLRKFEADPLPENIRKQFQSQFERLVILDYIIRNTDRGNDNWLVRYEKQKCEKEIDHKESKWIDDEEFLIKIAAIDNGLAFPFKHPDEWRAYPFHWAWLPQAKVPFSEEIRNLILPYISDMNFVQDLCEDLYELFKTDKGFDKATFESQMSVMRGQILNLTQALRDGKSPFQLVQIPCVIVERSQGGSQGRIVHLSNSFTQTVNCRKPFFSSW
PI4K2A, sequence (Q9BTU6 whole entry, species assumed): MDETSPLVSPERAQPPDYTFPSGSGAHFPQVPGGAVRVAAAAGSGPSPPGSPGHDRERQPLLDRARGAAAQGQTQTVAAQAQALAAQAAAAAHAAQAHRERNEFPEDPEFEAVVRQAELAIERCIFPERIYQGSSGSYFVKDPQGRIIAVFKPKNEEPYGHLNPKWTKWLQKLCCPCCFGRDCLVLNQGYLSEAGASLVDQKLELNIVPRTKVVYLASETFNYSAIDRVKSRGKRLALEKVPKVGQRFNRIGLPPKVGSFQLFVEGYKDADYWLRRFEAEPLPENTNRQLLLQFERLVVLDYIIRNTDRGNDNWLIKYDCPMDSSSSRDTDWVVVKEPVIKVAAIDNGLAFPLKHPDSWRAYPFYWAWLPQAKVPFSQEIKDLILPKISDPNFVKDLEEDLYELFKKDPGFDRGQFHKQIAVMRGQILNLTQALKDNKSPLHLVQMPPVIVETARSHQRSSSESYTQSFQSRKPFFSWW

As to `Cc1cc(CNc2cc(C)nc3c(-c4ccc5c(c4)c(C)nn5C)c(C)nn23)ccn1` [3-(1,3-dimethyl-1H-indazol-5-yl)-2,5-dimethyl-N-[(2-methylpyridin-4-yl)methyl]pyrazolo[1,5-a]pyrimidin-7-amine], the IC50 (in general, the concentration at which inhibition is half-maximal) at PI4KB was 0.0006 µM; at PI4K2A, more than 10 µM; against PI4K2B, more than 10 µM; on PI4KA it was 1.1 µM; at PI3KB (p110b/p85a), 5.4 µM; against PI3K (p120g), more than 1 µM. Moreover, on PI3KA (p110a/p85a), the IC50 came out at 3.4 µM.
